# Experimental data from article PMC5531494, “Target specificity, in vivo pharmacokinetics, and efficacy of the putative STAT3 inhibitor LY5 in osteosarcoma, Ewing's sarcoma, and rhabdomyosarcoma” (PLoS ONE, 2017).
# Like-named read-outs stand apart in the source and are kept apart here.
# Tests used:
# [1] = PK in normal beagle dogs, IV and oral gavage; type: in vivo; settings: plasma; for bioavailability: dog, po, read-out: F (oral bioavailability)
# Protocol: (§1) LY5 was evaluated in two normal purpose-bred beagle dogs (female 8.8 kg; male 11.2 kg) receiving a single dose of 1mg/kg LY5 IV then orally by gavage 7 days later to establish the PK profile and assess the spectrum of clinical toxicities associated with LY5 administration. The oral dosing was repeated in the fed and fasted state. The starting dose was determined based on allometric scaling from the maximal tolerated dose studies performed in mice. Dogs were washed out for 30 days, and then given a dose of 25 mg in a capsule orally, followed by a 50 mg capsule dose 14 days later. Full PK sampling was performed over 24 hours following each dose of LY5. The dogs received LY5 and were used for the PK analysis but were not euthanized upon conclusion of the study.
# (§2) The liquid chromatography-mass spectrometry system utilized for these analyses consisted of a Dionex Ultimate 3000 RSLCnano High Performance Liquid Chromatography system and a Thermo Finnigan Quantum Ultras EMR mass spectrometer with an electrospray ionization source. Positive ionization mode was used for both LY5 and the internal standard, hesperetin. Plasma samples were collected and analyzed by the OSU James Comprehensive Cancer Center Pharmacoanalytical Shared Resource. Pharsight Phoenix WinNonlin software using non-compartmental analysis was used to generate PK parameters including maximum plasma concentration (Cmax), amount of time that drug is present at Cmax (Tmax), and total area under the curve (AUC). AUC all and AUC last were calculated by linear trapezoidal method of concentration-time curve up to the last measured point. AUC inf-obs was calculated by log-linear extrapolation of the terminal phase beyond the last collection time. Bioavailability (F) was calculated for IP and PO administration routes. Plasma stability and liver microsomal stability of LY5 were also assessed through this shared resource.
# [2] = PK in normal beagle dogs, oral capsules of LY5 powder; type: in vivo; settings: plasma, fasted; for AUC(0-inf): read-out: AUC inf-obs
# Protocol: as §1, §2
# [3] = target: T1, STAT1 (Homo sapiens, UniProt P42224); assay: Cytokine-induced STAT1 phosphorylation in SJSA cells, Western blot; type: cell-based; settings: induced by IFN-γ, IFN-α, or IL-4
# T1 construct: endogenous in cells; host or cells: SJSA
# Protocol: (§3) Cell lysis, protein isolation and immunoblotting were performed as described previously. Twenty micrograms of protein were resolved using 4–12% Bis-Tris polyacrylamide gels. Gels were transferred to PVDF membranes and subjected to blocking and incubation with primary and secondary antibodies. The primary antibodies used in this study included: phospho-STAT3 (Tyr705, Cell Signaling, Boston, MA and Abcam, Cambridge, MA), total STAT3 (Cell Signaling and Abcam), phospho-STAT1 (Cell Signaling), total STAT1 (Cell Signaling), phospho-STAT2 (Cell Signaling), phospho-STAT4 (Cell Signaling), phospho-STAT6 (Cell Signaling), and GAPDH (Cell Signaling). Protein bands were detected using Western Lightning ® Plus Enhanced Chemiluminescence substrate (Perkin Elmer, Waltham, MA) and HyBlot CL ® Autoradiography film (Denville Scientific, Holliston, MA). The cytokines used in this study included: interferon gamma (IFN-γ, Cell Signaling), interferon alpha (IFN-α, Cell Signaling), interleukin-4 (IL-4, Cell Signaling), interleukin-6 (IL-6, Cell Signaling), and oncostatin M (OSM, Cell Signaling).
# (§4) Fig 1 LY5 inhibits pSTAT3 in sarcoma cell lines. (A) The tumor cell lines RH30, EW8, and RD were treated with increasing concentrations of LY5 for 30 minutes. Cell lysates were collected for Western blotting of p-STAT3, total STAT3, and GAPDH. GAPDH was used as loading control. […]
# [4] = system: MG63.3 cells; assay: Ex vivo pulmonary metastasis assay (PuMA); type: cell-based, human; settings: MG 63.3, 10 μM and 50 μM LY5, up to 21 days
# Protocol: GFP-positive K7M2 and MG63.3 cells (3 x 10^5 MG63.3; 5 x 10^5 K7M2) were administered via tail vein injection into mice. Following humane euthanasia, the lungs were insufflated with a culture medium/agarose mixture to a constant hydrostatic pressure of 20 cm H2O and prepared for ex vivo culture as previously described. Lung sections were cultured in complete media containing LY5 (0, 0.1, 1, 10 or 50 μM) on sterile Gelfoam using 6 lung sections per treatment condition. Media was changed every 48 hrs and lung slices were imaged with a fluorescent microscope every 7 days for a total of 21 days.
# MG63.3 and K7M2 cell lines were exposed to increasing concentrations of LY5 to determine the IC50 (A). Western blot analysis was performed to determine the dose and duration of LY5 exposure required to inhibit STAT3 phosphorylation (B-C). Serial imaging of fluorescently labeled MG63.3 and K7M2 cells was performed in ex vivo LY5 treated lung sections (D). Metastatic burden was quantified by evaluation of the percent tumor burden (mean normalized fluorescent area). Data are reported as the mean ± standard deviation. In MG 63.3 experiment, p < 0.0001 Kruskal-Wallis test, p < 0.05 10 μM vs control at days 7, 14, and 21, 10 μM vs 1 μM at days 7, 14, and 21, 50 μM vs control at days 7, 14, and 21, and 50 μM vs 10 μM at days 7, 14, and 21 post-test Dunn. […]
# [5] = target: T2, STAT2 (Homo sapiens, UniProt P52630); assay: Cytokine-induced STAT2 phosphorylation in SJSA cells, Western blot; type: cell-based; settings: induced by IFN-γ, IFN-α, or IL-4
# T2 construct: endogenous in cells; host or cells: SJSA
# Protocol: as §3, §4
# [6] = female, Dog #2, PO fed, 1.28 mg/kg, dog vomited 10 min after dosing
# [7] = female, Dog #2, PO w/ fast, 0.9 mg/kg
# [8] = male, Dog #1, PO fed, 1.28 mg/kg
# [9] = male, Dog #1, PO w/ fast, 0.9 mg/kg
# [10] = female, Dog #2, 25 mg oral capsule
# [11] = female, Dog #2, 50mg oral capsule
# [12] = male, Dog #1, 25 mg oral capsule
# [13] = male, Dog #1, 50mg oral capsule
# T1 sequence (P42224 whole entry): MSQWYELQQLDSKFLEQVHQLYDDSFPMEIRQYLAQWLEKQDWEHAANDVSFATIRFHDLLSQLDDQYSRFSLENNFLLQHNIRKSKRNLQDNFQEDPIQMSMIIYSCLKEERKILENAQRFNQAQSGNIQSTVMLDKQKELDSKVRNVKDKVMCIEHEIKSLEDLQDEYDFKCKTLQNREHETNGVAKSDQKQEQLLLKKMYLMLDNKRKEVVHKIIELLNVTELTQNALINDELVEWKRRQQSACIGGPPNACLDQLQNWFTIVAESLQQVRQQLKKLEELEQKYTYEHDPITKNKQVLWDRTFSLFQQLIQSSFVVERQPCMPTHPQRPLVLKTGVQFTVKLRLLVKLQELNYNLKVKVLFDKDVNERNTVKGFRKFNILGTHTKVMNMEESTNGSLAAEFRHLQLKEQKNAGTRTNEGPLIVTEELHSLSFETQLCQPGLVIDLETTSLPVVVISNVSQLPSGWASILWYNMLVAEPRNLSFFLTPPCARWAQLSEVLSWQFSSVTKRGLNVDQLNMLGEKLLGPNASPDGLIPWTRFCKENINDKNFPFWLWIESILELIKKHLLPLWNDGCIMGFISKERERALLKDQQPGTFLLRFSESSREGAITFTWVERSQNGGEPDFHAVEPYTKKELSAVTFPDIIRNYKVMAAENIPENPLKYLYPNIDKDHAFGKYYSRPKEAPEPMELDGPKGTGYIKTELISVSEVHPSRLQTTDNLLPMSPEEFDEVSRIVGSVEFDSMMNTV
# T2 sequence (P52630 whole entry): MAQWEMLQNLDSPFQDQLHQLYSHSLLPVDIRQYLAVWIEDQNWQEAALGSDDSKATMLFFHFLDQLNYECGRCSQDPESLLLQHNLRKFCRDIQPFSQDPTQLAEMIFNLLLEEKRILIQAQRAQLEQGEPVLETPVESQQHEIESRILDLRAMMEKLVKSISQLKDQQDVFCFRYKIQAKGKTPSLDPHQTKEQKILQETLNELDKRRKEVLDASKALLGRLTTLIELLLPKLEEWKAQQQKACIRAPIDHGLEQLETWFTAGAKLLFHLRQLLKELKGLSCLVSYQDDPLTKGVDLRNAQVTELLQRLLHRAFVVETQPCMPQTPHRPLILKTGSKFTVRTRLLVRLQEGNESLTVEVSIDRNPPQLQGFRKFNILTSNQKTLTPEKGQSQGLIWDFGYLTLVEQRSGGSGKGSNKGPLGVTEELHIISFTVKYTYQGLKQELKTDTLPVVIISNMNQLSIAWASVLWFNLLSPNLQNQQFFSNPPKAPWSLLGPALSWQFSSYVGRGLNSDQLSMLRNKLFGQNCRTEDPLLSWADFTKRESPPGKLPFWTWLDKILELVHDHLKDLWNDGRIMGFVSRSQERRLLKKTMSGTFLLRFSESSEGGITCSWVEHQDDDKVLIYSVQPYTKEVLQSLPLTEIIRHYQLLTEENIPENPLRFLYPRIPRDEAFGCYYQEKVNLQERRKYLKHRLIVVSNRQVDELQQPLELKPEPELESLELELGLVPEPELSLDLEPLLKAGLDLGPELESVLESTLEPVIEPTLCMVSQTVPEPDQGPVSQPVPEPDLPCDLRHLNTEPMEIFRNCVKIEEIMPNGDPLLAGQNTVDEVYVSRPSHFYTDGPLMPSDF
structure (smiles),measurement,setting,value
"NS(=O)(=O)c1cccc2c1C(=O)C=C(Nc1cccnc1)C2=O [LY5, 5,8-dioxo-6-(pyridin-3-ylamino)-5,8-dihydronaphthalene-1-sulfonamide]",bioavailability,"[1]; female, 0.9 mg/kg, Dog #2, PO w/ fast (fasted female dog)",44.3%
same,bioavailability,"[1]; female, 1 mg/kg, Dog #2, PO w/ fast (fasted female dog)",44%
same,bioavailability,"[1]; female, 1.28 mg/kg, Dog #2, PO fed, dog vomited 10 min after dosing",5%
same,AUC,"[1]; female, Dog #2, IV, 0.97 mg/kg",3.92 µM·h
same,Cmax,"[1]; female, Dog #2, IV, 0.97 mg/kg",3220 nM
same,AUC,[1]; [6],0.258 µM·h
same,Cmax,[1]; [6],60.4 nM
same,AUC,[1]; [7],1.61 µM·h
same,Cmax,[1]; [7],500 nM
same,bioavailability,"[1]; male, 0.9 mg/kg, Dog #1, PO w/ fast (fasted male dog)",51.6%
same,bioavailability,"[1]; male, 1 mg/kg, Dog #1, PO fed",14%
same,bioavailability,"[1]; male, 1 mg/kg, Dog #1, PO w/ fast (fasted male dog)",52%
same,bioavailability,"[1]; male, 1.28 mg/kg, Dog #1, PO fed",13.7%
same,AUC,"[1]; male, Dog #1, IV, 0.97 mg/kg",5.1 µM·h
same,Cmax,"[1]; male, Dog #1, IV, 0.97 mg/kg",5590 nM
same,AUC,[1]; [8],0.924 µM·h
same,Cmax,[1]; [8],206 nM
same,AUC,[1]; [9],2.44 µM·h
same,Cmax,[1]; [9],1280 nM
same,AUC(0-t),[2]; [10],2.51 µM·h
same,Tmax,[2]; [10],2 h
same,AUC(0-inf),[2]; [10],2.53 µM·h
same,AUC(0-t),[2]; [11],5.93 µM·h
same,Tmax,[2]; [11],4 h
same,AUC(0-inf),[2]; [11],5.96 µM·h
same,AUC(0-t),[2]; [12],2.62 µM·h
same,Cmax,[2]; [12],230 nM
same,Tmax,[2]; [12],2 h
same,AUC(0-inf),[2]; [12],2.69 µM·h
same,AUC(0-t),[2]; [13],2.92 µM·h
same,Cmax,[2]; [13],840 nM
same,Tmax,[2]; [13],3 h
same,AUC(0-inf),[2]; [13],2.97 µM·h
same,Cmax,"[2]; Dog #2, 25 mg oral capsule",516 nM
same,Cmax,"[2]; Dog #2, 50mg oral capsule",909 nM
same,phosphorylation of STAT1,[3],did not inhibit
same,percent tumor burden in PuMA,[4],significantly decreased
same,phosphorylation of STAT2,[5],did not inhibit
